According to patent US20240279205A1, “NOVEL BENZIMIDAZOLE DERIVATIVE” (Carna Biosciences, Inc., priority 2020, published 2024):

Target: T1, human STING (hSTING) (Homo sapiens, UniProt Q86WV6)
T1 construct: host or cells: HEK-Blue ISG cells (HEK293-derived SEAP reporter line)
Test: Inhibition test of intracellular human STING (hSTING) pathway using SEAP reporter cells (HEK-Blue ISG), stimulation with Compound 3
Type: cell-based
Parameters: hSTING inhibitory activity: scale not given here
Conditions: Compound 3 10 nM stimulation, 21 hours
Summary of the method: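 HEK-Blue ISG cells with IRF-inducible SEAP reporter, pretreated 1 h with compound (final 0.1 to 10 μM), then stimulated with Compound 3 (final 10 nM) for 21 h at 37° C. Supernatant SEAP measured colorimetrically; IC50 from log-concentration regression, normalized to stimulated (100%) and unstimulated (0%) controls.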

T1 sequence (Q86WV6 whole entry H232R): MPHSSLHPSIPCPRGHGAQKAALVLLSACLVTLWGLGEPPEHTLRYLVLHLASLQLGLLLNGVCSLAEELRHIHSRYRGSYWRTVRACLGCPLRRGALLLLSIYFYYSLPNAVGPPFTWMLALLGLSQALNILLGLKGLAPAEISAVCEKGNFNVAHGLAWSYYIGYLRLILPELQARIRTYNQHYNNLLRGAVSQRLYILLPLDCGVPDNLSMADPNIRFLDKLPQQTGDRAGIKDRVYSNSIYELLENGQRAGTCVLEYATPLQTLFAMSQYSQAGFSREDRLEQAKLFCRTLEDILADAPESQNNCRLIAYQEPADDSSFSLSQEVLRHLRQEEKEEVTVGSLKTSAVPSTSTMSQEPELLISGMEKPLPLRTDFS

For `C[C@@H](O)Cn1c(Nc2c[nH]c3ccc(Cl)cc23)nc2cc(C(F)(F)F)ccc21` [Embodiment 239, (R)-1-{2-[(5-chloro-1H-indol-3-yl)amino]-5-(trifluoromethyl)-1H-benzo[d]imidazol-1-yl}propan-2-oar], which hSTING inhibitory activity is on record?
The hSTING inhibitory activity was “* *”.

Which hSTING inhibitory activity does the source give for `C[C@H](O)Cn1c(Nc2c[nH]c3ccc(Cl)cc23)nc2cc(C(F)(F)F)ccc21` [Embodiment 243, (S)-1-{2-[(5-chloro-1H-indol-3-yl)amino]-5-(trifluoromethyl)-1H-benzo[d]imidazol-1-yl}propan-2-oar] here?
Its hSTING inhibitory activity is “* *”.

How did the hSTING inhibitory activity turn out when `CNn1c(Nc2c[nH]c3ccc(Cl)cc23)nc2cc(C(F)(F)F)cc(F)c21` [Embodiment 271, N2-(5-Chloro-1H-indol-3-yl)-7-fluoro-N1-methyl-5-(trifluoromethyl)-1H-benzo[d]imidazole-1,2-diamine] was run?
Its hSTING inhibitory activity is “* * *”.

With `CNn1c(Nc2c[nH]c3ccc(F)c(F)c23)nc2cc(C(F)(F)F)cc(F)c21` [Embodiment 272, N2-(4,5-difluoro-1H-indol-3-yl)-7-fluoro-N1-methyl-5-(trifluoromethyl)-1H-benzo[d]imidazole-1,2-diamine] as the compound, how does the hSTING inhibitory activity read?
Its hSTING inhibitory activity is “* * *”.

For `CNn1c(Nc2c[nH]c3cc(F)c(F)cc23)nc2cc(C(F)(F)F)cc(F)c21` [Embodiment 273, N2-(5,6-difluoro-1H-indol-3-yl)-7-fluoro-N1-methyl-5-(trifluoromethyl)-1H-benzo[d]imidazole-1,2-diamine], which hSTING inhibitory activity is on record?
Its hSTING inhibitory activity is “* * *”.

For `Cn1c(Nc2c[nH]c3ccc(Cl)cc23)nc2cc(C(F)(F)F)c(F)c(F)c21` [Embodiment 274, N-(5-Chloro-1H-indol-3-yl)-6,7-difluoro-1-methyl-5-(trifluoromethyl)-1H-benzo[d]imidazol-2-amine], which hSTING inhibitory activity is on record?
Its hSTING inhibitory activity is “* * *”.

`CN(C)n1c(Nc2c[nH]c3ccc(Cl)cc23)nc2cc(C(F)(F)F)c(F)cc21` [Embodiment 275, N2-(5-Chloro-1H-indol-3-yl)-6-fluoro-N1,N1-dimethyl-5-(trifluoromethyl)-1H-benzo[d] imidazole-1,2-didiamine] was tested. Which hSTING inhibitory activity did it give?
The hSTING inhibitory activity was “* * *”.

With `Cc1c(C(F)(F)F)ccc2c1nc(Nc1c[nH]c3ccc(Cl)cc13)n2C` [Embodiment 276, N-(5-Chloro-1H-indol-3-yl)-1,4-dimethyl-5-(trifluoromethyl)-1H-benzo[d]imidazol-2-amine] as the compound, how does the hSTING inhibitory activity read?
Its hSTING inhibitory activity is “* * *”.

How did the hSTING inhibitory activity turn out when `CNn1c(Nc2c[nH]c3ccc(C)cc23)nc2cc(C(F)(F)F)cc(F)c21` [Embodiment 277, 7-fluoro-N1-methyl-N2-(5-methyl-1H-indol-3-yl)-5-(trifluoromethyl)-1H-benzo[d]imidazole-1,2-diamine] was run?
Its hSTING inhibitory activity is “* * *”.

`CN(C)n1c(Nc2c[nH]c3ccc(F)c(F)c23)nc2cc(C(F)(F)F)cc(F)c21` [Embodiment 278, N2-(4,5-difluoro-1H-indol-3-yl)-7-fluoro-N1,N1-dimethyl-5-(trifluoromethyl)-1H-benzo[d] imidazole-1,2-diamine] was tested. Which hSTING inhibitory activity did it give?
Its hSTING inhibitory activity is “* *”.

Which hSTING inhibitory activity does the source give for `CN(C)n1c(Nc2c[nH]c3cc(F)c(F)cc23)nc2cc(C(F)(F)F)cc(F)c21` [Embodiment 279, N2-(5,6-difluoro-1H-indol-3-yl)-7-fluoro-N1,N1-dimethyl-5-(trifluoromethyl)-1H-benzo[d] imidazole-1,2-diamine] here?
Its hSTING inhibitory activity is “* *”.

`Cc1ccc2[nH]cc(Nc3nc4cc(C(F)(F)F)cc(F)c4n3N(C)C)c2c1` [Embodiment 280, 7-fluoro-N1,N1-dimethyl-N2-(5-methyl-1H-indol-3-yl)-5-(trifluoromethyl)-1H-benzo[d]imidazole-1,2-diamine] was tested. Which hSTING inhibitory activity did it give?
Its hSTING inhibitory activity is “* * *”.

How did the hSTING inhibitory activity turn out when `Brc1ccc2[nH]cc(Nc3nc4ccccc4[nH]3)c2c1` [Example 1, N-(5-bromo-1H-indol-3-yl)-1H-benzo[d]imidazol-2-amine] was run?
The hSTING inhibitory activity was “* *”.

How did the hSTING inhibitory activity turn out when `Cc1cccc2[nH]c(Nc3c[nH]c4ccc(Br)cc34)nc12` [Example 5, N-(5-bromo-1H-indol-3-yl)-4-methyl-1H-benzo[d]imidazol-2-amine] was run?
Its hSTING inhibitory activity is “* *”.

How did the hSTING inhibitory activity turn out when `Brc1cnc2[nH]cc(Nc3nc4cc(Oc5ccccc5)ccc4[nH]3)c2c1` [Example 10, N-(5-bromo-1H-pyrrolo[2,3-b]pyridin-3-yl)-5-phenoxy-1H-benzo[d]imidazol-2-amine] was run?
The hSTING inhibitory activity was “* *”.

Which hSTING inhibitory activity does the source give for `Brc1ccc2[nH]cc(Nc3nc4cc(Oc5cccnc5)ccc4[nH]3)c2c1` [Example 13, N-(5-bromo-1H-indol-3-yl)-5-(pyridin-3-yloxy)-1H-benzo[d]imidazol-2-amine] here?
The hSTING inhibitory activity was “* *”.

`Ic1ccc2[nH]cc(Nc3nc4ccccc4[nH]3)c2c1` [Example 16, N-(5-iodo-1H-indol-3-yl)-1H-benzo[d]imidazol-2-amine] was tested. Which hSTING inhibitory activity did it give?
The hSTING inhibitory activity was “* *”.

For `COC(=O)c1cccc2[nH]c(Nc3c[nH]c4ccc(Br)cc34)nc12` [Example 20, methyl 2-[(5-bromo-1H-indol-3-yl)amino]-1H-benzo[d]imidazole-4-carboxylate], which hSTING inhibitory activity is on record?
The hSTING inhibitory activity was “* *”.

With `COC(=O)c1ccc2[nH]cc(Nc3nc4cc(Oc5ccccc5)ccc4[nH]3)c2c1` [Example 22, methyl 3-[(5-phenoxy-1H-benzo[d]imidazol-2-yl)amino]-1H-indole-5-carboxylate] as the compound, how does the hSTING inhibitory activity read?
Its hSTING inhibitory activity is “* *”.

Which hSTING inhibitory activity does the source give for `O=S(=O)(c1ccccc1)c1ccc2[nH]c(Nc3c[nH]c4ccc(Br)cc34)nc2c1` [Example 23, N-(5-bromo-1H-indol-3-yl)-5-(phenylsulfonyl)-1H-benzo[d]imidazol-2-amine] here?
Its hSTING inhibitory activity is “* *”.

How did the hSTING inhibitory activity turn out when `O=C(Nc1ccccc1)c1ccc2[nH]cc(Nc3nc4cc(Oc5ccccc5)ccc4[nH]3)c2c1` [Example 30, 3-[(5-phenoxy-1H-benzo[d]imidazol-2-yl)amino]-N-phenyl-1H-indole-5-carboxamide] was run?
The hSTING inhibitory activity was “* *”.

Same assay, conditions: Compound 3 10 nM stimulation, 21 hours, read-out: hSTING inhibitory activity

For `CS(=O)(=O)CCn1c(Nc2c[nH]c3ccc(Cl)cc23)nc2cc(C(F)(F)F)ccc21` [Embodiment 230, N-(5-Chloro-1H-indol-3-yl)-1-[2-(methylsulfonyl)ethyl]-5-(trifluoromethyl)-1H-benzo[d] imidazol-2-amine], which IC50 is on record?
Its IC50 is 1 to 10 µM.

Which IC50 does the source give for `CC(C)(O)Cn1c(Nc2c[nH]c3ccc(Cl)cc23)nc2cc(C(F)(F)F)ccc21` [Embodiment 234, 1-{2-[(5-chloro-1H-indol-3-yl)amino]-5-(trifluoromethyl)-1H-benzo [d]imidazol-1-yl}-2-methylpropane-2-oar] here?
Its IC50 is 1 to 10 µM.

For `FC(F)(F)c1ccc2c(c1)nc(Nc1c[nH]c3ccc(Cl)cc13)n2N1CCOCC1` [Embodiment 235, N-(5-Chloro-1H-indol-3-yl)-1-morpholino-5-(trifluoromethyl)-1H-benzo[d]imidazol-2-amine], which IC50 is on record?
Its IC50 is 1 to 10 µM.

With `c1ccc(-c2ccc3[nH]cc(Nc4nc5ccccc5[nH]4)c3c2)cc1` [Example 2, N-(5-phenyl-1H-indol-3-yl)-1H-benzo[d]imidazol-2-amine] as the compound, how does the IC50 read?
The IC50 was no less than 10 µM.

How did the IC50 turn out when `Brc1cccc2[nH]cc(Nc3nc4ccccc4[nH]3)c12` [Example 9, N-(4-bromo-1H-indol-3-yl)-1H-benzo[d]imidazol-2-amine] was run?
The IC50 was no less than 10 µM.

For `Brc1cc2c(Nc3nc4cc(Oc5ccccc5)ccc4[nH]3)c[nH]c2cn1` [Example 11, N-(5-bromo-1H-pyrrolo[2,3-c]pyridin-3-yl)-5-phenoxy-1H-benzo[d]imidazol-2-amine], which IC50 is on record?
Its IC50 is 1 to 10 µM.

With `Fc1ccc2[nH]cc(Nc3nc4ccccc4[nH]3)c2c1` [Example 14, N-(5-fluoro-1H-indol-3-yl)-1H-benzo[d]imidazol-2-amine] as the compound, how does the IC50 read?
The IC50 was no less than 10 µM.

How did the IC50 turn out when `Clc1ccc2[nH]cc(Nc3nc4ccccc4[nH]3)c2c1` [Example 15, N-(5-chloro-1H-indol-3-yl)-1H-benzo[d]imidazol-2-amine] was run?
The IC50 was 1 to 10 µM.

With `Brc1cccc2c(Nc3nc4ccccc4[nH]3)c[nH]c12` [Example 17, N-(7-bromo-1H-indol-3-yl)-1H-benzo[d]imidazol-2-amine] as the compound, how does the IC50 read?
The IC50 was no less than 10 µM.

Which IC50 does the source give for `Brc1cnc2[nH]cc(Nc3nc4cc(Oc5ccccc5)ccc4[nH]3)c2n1` [Example 21, 2-bromo-N-(5-phenoxy-1H-benzo[d]imidazol-2-yl)-5H-pyrrolo[2,3-b]pyrazin-7-amine] here?
The IC50 was no less than 10 µM.

For `O=C(O)c1ccc2[nH]cc(Nc3nc4cc(Oc5ccccc5)ccc4[nH]3)c2c1` [Example 27, 3-[(5-phenoxy-1H-benzo[d]imidazol-2-yl)amino]-1H-indole-5-carboxylic acid], which IC50 is on record?
The IC50 was no less than 10 µM.

For `O=C(c1ccc2[nH]cc(Nc3nc4cc(Oc5ccccc5)ccc4[nH]3)c2c1)N1CCOCC1` [Example 28, morpholino {3-[(5-phenoxy-1H-benzo[d]imidazol-2-yl)amino]-1H-indol-5-yl} methanone], which IC50 is on record?
The IC50 was no less than 10 µM.

How did the IC50 turn out when `C#CCNC(=O)c1ccc2[nH]cc(Nc3nc4cc(Oc5ccccc5)ccc4[nH]3)c2c1` [Example 29, 3-[(5-phenoxy-1H-benzo[d]imidazol-2-yl)amino]-N-(prop-2-yn-1-yl)-1H-indole-5-carboxamide] was run?
Its IC50 is no less than 10 µM.
